Test results taken from ChEMBL document CHEMBL5233273, “An overview of hydroxypyranone and hydroxypyridinone as privileged scaffolds for novel drug discovery” (Eur J Med Chem, 2021).
Converted amounts (≈) assume the structure as drawn.

Columns and labels:
Tyrosinase [1] = molecular target: T1, Tyrosinase (Agaricus bisporus, UniProt O42713); assay: Inhibition of mushroom tyrosinase diphenolase activity
T1 sequence (O42713 whole entry): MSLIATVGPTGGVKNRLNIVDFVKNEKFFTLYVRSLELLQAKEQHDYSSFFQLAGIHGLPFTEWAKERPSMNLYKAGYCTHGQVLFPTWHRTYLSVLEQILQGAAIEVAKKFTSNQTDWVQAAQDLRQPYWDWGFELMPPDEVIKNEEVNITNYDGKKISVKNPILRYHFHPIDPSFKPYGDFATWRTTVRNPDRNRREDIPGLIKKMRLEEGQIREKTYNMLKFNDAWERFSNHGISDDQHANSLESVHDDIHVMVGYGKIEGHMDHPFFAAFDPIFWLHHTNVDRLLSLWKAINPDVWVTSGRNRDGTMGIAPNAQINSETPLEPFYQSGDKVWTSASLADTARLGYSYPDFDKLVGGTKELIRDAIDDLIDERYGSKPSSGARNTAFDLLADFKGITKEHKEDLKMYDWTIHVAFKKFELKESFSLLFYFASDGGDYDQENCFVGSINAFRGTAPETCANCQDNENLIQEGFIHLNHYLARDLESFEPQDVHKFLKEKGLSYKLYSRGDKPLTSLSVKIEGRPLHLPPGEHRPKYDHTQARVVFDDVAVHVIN

Tyrosinase [2] = molecular target: T1, Tyrosinase; assay: (§1) Inhibition of mushroom tyrosinase monophenolase activity
Histamine H3 receptor = Histamine H3 receptor (Homo sapiens, UniProt Q9Y5N1); assay: Binding affinity to human H3R expressed in HEK293 cells membrane; format: cell membranes
Tyrosinase [3] = molecular target: T1, Tyrosinase; assay: Inhibition of mushroom tyrosinase
Hepatitis C virus = assay: Antiviral activity against HCV; format: functional, organism-based, Hepacivirus hominis
Staphylococcus aureus [4] = assay: Antibacterial activity against Staphylococcus aureus assessed as zone of inhibition; format: functional
DNA gyrase = DNA gyrase (Escherichia coli, UniProt P0AES4+P0AES6); assay: Inhibition of Escherichia coli DNA gyrase; format: protein-complex assay
RAW264.7 = assay: Antiinflammatory activity in mouse RAW264.7 assessed as reduction in LPS-induced PGE2 production; format: functional, cell-based
[5] = molecular target: T2, Tyrosinase (Agaricus bisporus) (UniProt O42713); assay: Potency index, ratio of kojic acid IC50 to test compound IC50 for inhibition of mushroom tyrosinase
T2 sequence (whole entry): T1 sequence (O42713 whole entry)

HeLa = assay: Cytotoxicity against human HeLa cells; format: functional, cell-based
DU-145 = assay: Cytotoxicity against human DU-145 cells; format: functional, cell-based
A549 = assay: Cytotoxicity against human A549 cells; format: functional, cell-based
[6] = Inhibition of HIV-1 integrase; set-up: species or system Human immunodeficiency virus 1
Pseudomonas aeruginosa = assay: Antibacterial activity against Pseudomonas aeruginosa; format: functional
Escherichia coli = assay: Antibacterial activity against Escherichia coli; format: functional
Staphylococcus aureus [7] = assay: Antibacterial activity against Staphylococcus aureus; format: functional
Bacillus subtilis = assay: Antibacterial activity against Bacillus subtilis; format: functional
[8] = Antioxidant activity assessed as DPPH radical scavenging activity; format: functional
B16-F10 [9] = assay: Inhibition of tyrosinase in mouse B16-F10 cells assessed as inhibition of melanin production at 10 ug/ml relative to control; format: cell-based; settings: dose 10.0 µg/ml
HepG2 = assay: Cytotoxicity against human HepG2 cells; format: functional, cell-based
[10] = Neuroprotective activity in CGC cells assessed as inhibition of lipid peroxidation; format: functional, cell-based; settings: cerebellar granule neurone
B16-F10 [11] = assay: Inhibition of tyrosinase in mouse B16-F10 cells assessed as inhibition of melanin production at 5 ug relative to control; format: cell-based; settings: dose 5.0 µg
[12] = molecular target: T2, Tyrosinase (Agaricus bisporus); assay: as §1
[13] = system: Mycobacterium tuberculosis; assay: Antitubercular activity against Mycobacterium tuberculosis H37Rv ATCC 27294; format: functional
Mycobacterium avium = assay: Antitubercular activity against Mycobacterium avium ATCC 15769; format: functional

Chain of Histamine H3 receptor (Q9Y5N1 whole entry): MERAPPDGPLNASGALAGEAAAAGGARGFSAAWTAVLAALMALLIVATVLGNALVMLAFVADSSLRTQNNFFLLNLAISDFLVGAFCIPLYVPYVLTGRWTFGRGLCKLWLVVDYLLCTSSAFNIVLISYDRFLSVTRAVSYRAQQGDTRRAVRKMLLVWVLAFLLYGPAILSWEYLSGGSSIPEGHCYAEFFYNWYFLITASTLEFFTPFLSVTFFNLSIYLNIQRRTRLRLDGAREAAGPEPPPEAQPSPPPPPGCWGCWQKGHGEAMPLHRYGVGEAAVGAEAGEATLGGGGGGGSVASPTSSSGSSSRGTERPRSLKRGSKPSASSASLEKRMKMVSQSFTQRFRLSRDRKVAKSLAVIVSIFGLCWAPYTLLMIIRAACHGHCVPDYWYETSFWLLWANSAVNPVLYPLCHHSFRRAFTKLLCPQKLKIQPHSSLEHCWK

Compound: CCCCCCCCn1cc(O)c(=O)cc1COC(=O)[C@@H](N)Cc1ccccc1
- IC50 (Tyrosinase [1]): 4 µM
- IC50 (Tyrosinase [2]): 12.6 µM

Compound: CCCCCCCCn1cc(O)c(=O)cc1/C=N/OCC
- IC50 (Tyrosinase [1]): 7.99 µM
- IC50 (Tyrosinase [2]): 1.6 µM

Compound: O=c1cc(CNCc2ccc(OCCCN3CCCCC3)cc2)occ1O
- Ki (Histamine H3 receptor): 0.0316 µM

Compound: COc1ccc(C(=O)OCc2cc(=O)c(O)co2)cc1
- IC50 (Tyrosinase [3]): 20 µM
- EC50 (Hepatitis C virus): 2.55 µM

Compound: O=C(/C=C/c1ccc(C(=O)OCc2cc(=O)c(O)co2)cc1)c1ccccc1
- inhibition zone (IZ) (Staphylococcus aureus [4]): 8 mm

Compound: O=C(N[C@H]1CCc2nc(NCc3cc(=O)c(O)co3)sc2C1)c1cc(Br)c(Br)[nH]1
- IC50 (DNA gyrase): 0.18 µM

Compound: O=c1cc(/C=C/c2ccc(O)c(O)c2)occ1O
- IC50 (RAW264.7): 10.3 µM

Compound: O=c1cc(CO)oc(CN2CCN(Cc3ccc(Cl)c(Cl)c3)CC2)c1O
- IC50 (Tyrosinase [3]): 86.2 µM
- Ratio IC50 [5]: 5

Compound: CC(C)(C)[Si](C)(C)OCc1cc(=O)c(O)c(C(C[N+](=O)[O-])c2cccc(Cl)c2)o1 (centres undefined)
- IC50 (HeLa): 10 µM
- IC50 (DU-145): 14 µM
- IC50 (A549): 9 µM

Compound: Cc1cc(=O)c(O)c(C(=O)NCc2ccc(F)cc2)o1
- EC50 [6]: 0.7 µM
- IC50 [6]: 0.37 µM

Compound: Cc1cc(=O)c(O)c(C(=O)NCc2ccc(Cl)cc2)o1
- EC50 [6]: 1.95 µM
- IC50 [6]: 1.72 µM

Compound: O=C(OCc1cc(=O)c(O)co1)c1ccc2ccccc2c1
- EC50 (Hepatitis C virus): 2.74 µM

Compound: CC(C)(C)[Si](C)(C)OCc1cc(=O)c(O)c(C(C[N+](=O)[O-])c2ccc(Br)cc2)o1 (centres undefined)
- IC50 (DU-145): 13 µM
- IC50 (A549): 8 µM

Compound: CCCC(=O)NC(CCCNC(=O)c1c(O)c(=O)ccn1C)(CCCNC(=O)c1c(O)c(=O)ccn1C)CCCNC(=O)c1c(O)c(=O)ccn1C
- MIC (Pseudomonas aeruginosa): 16 µg/mL (≈ 22 µM)
- MIC (Escherichia coli): 8 µg/mL (≈ 11 µM)
- MIC (Staphylococcus aureus [7]): 8 µg/mL (≈ 11 µM)
- MIC (Bacillus subtilis): 8 µg/mL (≈ 11 µM)

Compound: O=c1cc(Cn2cc(COc3cccc4ccccc34)nn2)occ1O
- IC50 (Tyrosinase [3]): 0.06 µM
- Ratio IC50 [5]: 31

Compound: Cc1[nH]c(C(=O)N[C@H]2CCc3nc(NC(=O)[C@H](C)NC(=O)c4cc(=O)c(O)c[nH]4)sc3C2)c(Cl)c1Cl
- IC50 (DNA gyrase): 0.26 µM

Compound: CCOC(=O)CC(c1ccccc1)c1oc(CO)cc(=O)c1O (centres undefined)
- Activity [8]: 58.2%

Compound: O=C(/C=C/c1cc(=O)c(O)co1)OCCCOCCCOC(=O)/C=C/c1cc(=O)c(O)co1
- inhibition (B16-F10 [9]): 22.4%

Compound: Cc1[nH]c(C(=O)N[C@H]2CCc3nc(NC(=O)[C@@H](NC(=O)c4cc(=O)c(O)c[nH]4)C(C)C)sc3C2)c(Cl)c1Cl
- IC50 (DNA gyrase): 0.64 µM

Compound: O=C(/C=C/c1ccc(C(=O)OCc2cc(=O)c(O)co2)cc1)c1ccc(Br)cc1
- inhibition zone (IZ) (Staphylococcus aureus [4]): 8 mm

Compound: O=c1cc(Cn2cc(COc3ccc4ccccc4c3)nn2)occ1O
- IC50 (Tyrosinase [3]): 0.06 µM
- Ratio IC50 [5]: 155

Compound: Cn1cc(O)c(=O)cc1C(=O)Nc1ccccc1
- MIC (Staphylococcus aureus [7]): 16 µg/mL (≈ 65.5 µM)

Compound: Cc1[nH]c(C(=O)N[C@H]2CCc3nc(NC(=O)CCNC(=O)c4cc(=O)c(O)c[nH]4)sc3C2)c(Cl)c1Cl
- IC50 (DNA gyrase): 0.35 µM

Compound: O=c1cc(CN(Cc2ccc(OCCCN3CCCCC3)cc2)Cc2cc(=O)c(O)co2)occ1O
- Ki (Histamine H3 receptor): 0.01 µM

Compound: O=c1cc(CN2CCCCC2)oc(CN2CCN(Cc3ccc(Br)c(F)c3)CC2)c1O
- IC50 (HepG2): 37.2 µM

Compound: Cc1[nH]c(C(=O)N[C@H]2CCc3nc(NCc4cc(=O)c(O)co4)sc3C2)c(Cl)c1Cl
- IC50 (DNA gyrase): 2.1 µM

Compound: CCCC(=O)NC(CCCNC(=O)c1c(O)c(=O)ccn1CCO)(CCCNC(=O)c1c(O)c(=O)ccn1CCO)CCCNC(=O)c1c(O)c(=O)ccn1CCO
- MIC (Pseudomonas aeruginosa): 16 µg/mL (≈ 19.6 µM)
- MIC (Escherichia coli): 8 µg/mL (≈ 9.81 µM)
- MIC (Staphylococcus aureus [7]): 8 µg/mL (≈ 9.81 µM)
- MIC (Bacillus subtilis): 8 µg/mL (≈ 9.81 µM)

Compound: O=c1cc(CN2CCCC2)oc(CN2CCN(Cc3ccc(Br)c(F)c3)CC2)c1O
- IC50 (HepG2): 32.7 µM

Compound: Cn1cc(O)c(=O)cc1C(=O)Nc1cccnc1
- MIC (Staphylococcus aureus [7]): 32 µg/mL (≈ 130 µM)

Compound: Cc1c(O)c(=O)ccn1CCc1cc(C(C)(C)C)c(O)c(C(C)(C)C)c1
- IC50 [10]: 0.3 µM

Compound: O=c1cc(/C=C/c2cc(=O)c(O)co2)occ1O
- inhibition (B16-F10 [11]): 19.5%

Compound: CCCCCCn1cc(O)c(=O)cc1/C=N/OCC
- IC50 (Tyrosinase [1]): 13.9 µM
- IC5 [12]: 2.04 µM

Compound: O=c1cc(/C=C/c2ccc(O)cc2)occ1O
- IC50 (RAW264.7): 3.2 µM

Compound: Cc1c(O)c(=O)ccn1CCSc1cc(C(C)(C)C)c(O)c(C(C)(C)C)c1
- IC50 [10]: 0.4 µM

Compound: O=C(C1CCCCC1)N1CCN(Cc2oc(CCl)cc(=O)c2O)CC1
- MIC [13]: 4 µg/mL (≈ 10.8 µM)
- MIC (Mycobacterium avium): 4 µg/mL (≈ 10.8 µM)
